From patent US10053454B2 (Bristol-Myers Squibb Company, priority 2013, dated 2018) come the findings set out here.

A word on the IC50: it is the point on the concentration scale where inhibition reaches its midpoint.

This experiment addresses BRD4 (Homo sapiens, UniProt O60885). The experiment is described as follows: Time Resolved Fluorescence Resonance Energy Transfer (TR-FRET) binding assay. To be noted: one of the FRET assays described (BRD4 construct not given).
In turn, `Cc1noc(C)c1-c1cc(C(N)=O)c2c(c1)c1ccc(C(C)(C)O)cc1n2CC1CC1` [Example 53, 9-(cyclopropylmethyl)-3-(3,5-dimethyl-4-isoxazolyl)-7-(1-hydroxy-1-methylethyl)-9H-carbazole-1-carboxamide] yielded an IC50 of less than 500 nM.
Regarding `Cc1noc(C)c1-c1cc(C(N)=O)c2c(c1)c1ccc(C(=O)N3CC(F)(F)C3)cc1n2S(C)(=O)=O` [Example 11, 7-((3,3-difluoro-1-azetidinyl)carbonyl)-3-(3,5-dimethyl-4-isoxazolyl)-9-(methylsulfonyl)-9H-carbazole-1-carboxamide], the IC50 was less than 50 nM.
The result for `Cc1noc(C)c1-c1cc(C(N)=O)c2c(c1)c1ccc(C(=O)N3CCC(N(C)C)C3)cc1n2S(C)(=O)=O` (centres unmarked) [Example 18, 7-((3-(dimethylamino)-1-pyrrolidinyl)carbonyl)-3-(3,5-dimethyl-4-isoxazolyl)-9-(methylsulfonyl)-9H-carbazole-1-carboxamide] reads less than 50 nM; that for `Cc1noc(C)c1-c1cc(-c2nnc[nH]2)c2c(c1)c1ccc(C(=O)N3C[C@@H](C)O[C@@H](C)C3)cc1n2CC1CC1` [Example 85, 9-(cyclopropylmethyl)-3-(3,5-dimethyl-4-isoxazolyl)-7-((cis-2,6-dimethyl-4-morpholinyl)carbonyl)-1-(1H-1,2,4-triazol-3-yl)-9H-carbazole], less than 500 nM; that for `Cc1noc(C)c1-c1cc(-c2nc[nH]n2)c2[nH]c3cc(C(=O)N4CCOCC4)ccc3c2c1` [Example 69, 3-(3,5-dimethyl-4-isoxazolyl)-7-(4-morpholinylcarbonyl)-1-(1H-1,2,4-triazol-3-yl)-9H-carbazole], less than 500 nM.
`Cc1noc(C)c1-c1cc(C(N)=O)c2c(c1)c1ccc(C(=O)N3CCS(=O)(=O)CC3)cc1n2S(C)(=O)=O` [Example 15, 3-(3,5-dimethyl-4-isoxazolyl)-7-((1,1-dioxido-4-thiomorpholinyl)carbonyl)-9-(methylsulfonyl)-9H-carbazole-1-carboxamide] had an IC50 of less than 5000 nM.
The result for `COc1ccc2c3cc(-c4c(C)noc4C)cc(C(N)=O)c3n(CC3CC3)c2c1` [Example 49, 9-(cyclopropylmethyl)-3-(3,5-dimethyl-4-isoxazolyl)-7-methoxy-9H-carbazole-1-carboxamide] reads less than 50 nM.
Turning to `Cc1noc(C)c1-c1cc(C(N)=O)c2c(c1)c1ccc(N(C)C)cc1n2CC1CC1` [Example 38, 9-(cyclopropylmethyl)-7-(dimethylamino)-3-(3,5-dimethyl-4-isoxazolyl)-9H-carbazole-1-carboxamide], the half-inhibitory concentration (IC50) is less than 50 nM.
For `Cc1noc(C)c1-c1cc(C(N)=O)c2c(c1)c1ccc(C(=O)N(C)C)cc1n2S(C)(=O)=O` [Example 12, 3-(3,5-dimethyl-4-isoxazolyl)-N7,N7-dimethyl-9-(methylsulfonyl)-9H-carbazole-1,7-dicarboxamide], the IC50 was less than 50 nM.
In the case of `Cc1noc(C)c1-c1cc(C(N)=O)c2c(c1)c1c(C(=O)N3C[C@@H](C)O[C@@H](C)C3)cc(OC(F)(F)F)cc1n2S(=O)(=O)C1CC1` [Example 75, 9-(cyclopropylsulfonyl)-3-(3,5-dimethyl-4-isoxazolyl)-5-((cis-2,6-dimethyl-4-morpholinyl)carbonyl)-7-(trifluoromethoxy)-9H-carbazole-1-carboxamide] it was less than 500 nM; in that of `Cc1noc(C)c1-c1cc(C(N)=O)c2c(c1)c1ccc(S(C)(=O)=O)cc1n2CC1CC1` [Example 80, 9-(cyclopropylmethyl)-3-(3,5-dimethylisoxazol-4-yl)-7-(methylsulfonyl)-9H-carbazole-1-carboxamide], less than 50 nM; in that of `Cc1noc(C)c1-c1cc(C(N)=O)c2c(c1)c1cc(Br)c(Br)cc1n2CC1CC1` [Example 35, 6,7-dibromo-9-(cyclopropylmethyl)-3-(3,5-dimethyl-4-isoxazolyl)-9H-carbazole-1-carboxamide], less than 500 nM.
Consider `Cc1noc(C)c1-c1cc(C(N)=O)c2c(c1)c1ccc(C(=O)N3CCCOCC3)cc1n2S(C)(=O)=O` [Example 17, 3-(3,5-dimethyl-4-isoxazolyl)-9-(methylsulfonyl)-7-(1,4-oxazepan-4-ylcarbonyl)-9H-carbazole-1-carboxamide], for which the half-inhibitory concentration (IC50) was less than 50 nM.
Turning to `Cc1noc(C)c1-c1cc(C#N)c2[nH]c3cc(C(=O)N4CCOCC4)ccc3c2c1` [Example 58, 3-(3,5-dimethyl-4-isoxazolyl)-7-(4-morpholinylcarbonyl)-9H-carbazole-1-carbonitrile], the IC50 was less than 5000 nM.
`Cc1noc(C)c1-c1cc(C(N)=S)c2[nH]c3cc(C(=S)N4CCOCC4)ccc3c2c1` [Example 63, 3-(3,5-dimethyl-4-isoxazolyl)-7-(4-morpholinylcarbonothioyl)-9H-carbazole-1-carbothioamide]: the 50% inhibitory concentration (IC50) is less than 500 nM.
As for `Cc1noc(C)c1-c1cc(C(N)=O)c2c(c1)c1ccc(C(=O)N3CCOCC3)cc1n2CC1CC1` [Example 4, 9-(cyclopropylmethyl)-3-(3,5-dimethyl-4-isoxazolyl)-7-(4-morpholinylcarbonyl)-9H-carbazole-1-carboxamide], the half-maximal inhibitory concentration (IC50) was less than 50 nM.
On to `Cc1csc(-c2cc(-c3c(C)noc3C)cc3c2[nH]c2cc(C(=O)N4CCOCC4)ccc23)n1` [Example 65], for which the 50% inhibitory concentration (IC50) was less than 5000 nM.
The result for `Cc1oncc1-c1cc(C(N)=O)c2c(c1)c1ccc(C(=O)N3C[C@@H](C)O[C@@H](C)C3)cc1n2CC1CC1` [Example 57, 9-(cyclopropylmethyl)-7-((cis-2,6-dimethyl-4-morpholinyl)carbonyl)-3-(5-methyl-4-isoxazolyl)-9H-carbazole-1-carboxamide] reads less than 500 nM; that for `Cc1noc(C)c1-c1cc(C(N)=O)c2c(c1)c1ccc(NC(=O)OC(C)(C)C)cc1n2CC1CC1` [Example 27, tert-butyl(8-carbamoyl-9-(cyclopropylmethyl)-6-(3,5-dimethyl-4-isoxazolyl)-9H-carbazol-2-yl)carbamate], less than 500 nM; that for `COc1ccc2c(c1)c1cc(-c3c(C)noc3C)cc(C(N)=O)c1n2S(C)(=O)=O` [Example 72, 3-(3,5-dimethylisoxazol-4-yl)-6-methoxy-9-(methylsulfonyl)-9H-carbazole-1-carboxamide], less than 500 nM.
In the case of `Cc1noc(C)c1-c1cc(C(N)=O)c2c(c1)c1ccc(C(=O)N3CCC(F)CC3)cc1n2S(C)(=O)=O` [Example 8, 3-(3,5-dimethyl-4-isoxazolyl)-7-((4-fluoro-1-piperidinyl)carbonyl)-9-(methylsulfonyl)-9H-carbazole-1-carboxamide] it was less than 500 nM; in that of `CCn1c2cc(C(=O)N3CCOCC3)ccc2c2cc(-c3c(C)noc3C)cc(C(N)=S)c21` [Example 67, 3-(3,5-dimethyl-4-isoxazolyl)-9-ethyl-7-(4-morpholinylcarbonyl)-9H-carbazole-1-carbothioamide], less than 500 nM.
In the case of `Cc1noc(C)c1-c1cc(C(N)=O)c2c(c1)c1ccc(N(c3nccs3)c3nccs3)cc1n2CC1CC1` [Example 30, 9-(cyclopropylmethyl)-3-(3,5-dimethyl-4-isoxazolyl)-7-(di-1,3-thiazol-2-ylamino)-9H-carbazole-1-carboxamide] it was less than 500 nM; in that of `Cc1noc(C)c1-c1cc(C(N)=O)c2c(c1)c1ccc(C(=O)N3CNC(=O)C3)cc1n2S(C)(=O)=O` [Example 19, 3-(3,5-dimethyl-4-isoxazolyl)-9-(methylsulfonyl)-7-((4-oxo-1-imidazolidinyl)carbonyl)-9H-carbazole-1-carboxamide], less than 500 nM.
`Cc1noc(C)c1-c1cc(C(N)=S)c2[nH]c3cc(C(=O)N4CCOCC4)ccc3c2c1` [Example 64, 3-(3,5-dimethyl-4-isoxazolyl)-7-(4-morpholinylcarbonyl)-9H-carbazole-1-carbothioamide] showed an IC50 of less than 5000 nM.
Consider `Cc1nnn(C)c1-c1cc(C(N)=O)c2c(c1)c1ccc(C(=O)N3C[C@@H](C)O[C@@H](C)C3)cc1n2CC1CC1` [Example 84, 9-(cyclopropylmethyl)-7-((cis-2,6-dimethyl-4-morpholinyl)carbonyl)-3-(1,4-dimethyl-1H-1,2,3-triazol-5-yl)-9H-carbazole-1-carboxamide], for which the IC50 was less than 500 nM.
In the case of `Cc1noc(C)c1-c1cc(C(N)=O)c2c(c1)c1ccc(C(C)(C)N3CCOCC3)cc1n2CC1CC1` [Example 52, 9-(cyclopropylmethyl)-3-(3,5-dimethyl-4-isoxazolyl)-7-(1-methyl-1-(4-morpholinyl)ethyl)-9H-carbazole-1-carboxamide], the 50% inhibitory concentration (IC50) is less than 50 nM.
In the case of `CCNC(=O)Nc1ccc2c3cc(-c4c(C)noc4C)cc(C(N)=O)c3n(CC3CC3)c2c1` [Example 31, 9-(cyclopropylmethyl)-3-(3,5-dimethyl-4-isoxazolyl)-7-((ethylcarbamoyl)amino)-9H-carbazole-1-carboxamide] it was less than 500 nM.
Compound `Cc1noc(C)c1-c1cc(C(N)=O)c2c(c1)c1ccc(C(=O)N3CCC(C#N)CC3)cc1n2S(C)(=O)=O` [Example 6, 7-((4-cyano-1-piperidinyl)carbonyl)-3-(3,5-dimethyl-4-isoxazolyl)-9-(methylsulfonyl)-9H-carbazole-1-carboxamide] registered an IC50 of less than 50 nM.
The result for `Cc1noc(C)c1-c1cc(C(N)=O)c2c(c1)c1ccc(C(=O)N3CCCOCC3)cc1n2S(=O)(=O)C1CC1` [Example 25, 9-(cyclopropylsulfonyl)-3-(3,5-dimethyl-4-isoxazolyl)-7-(1,4-oxazepan-4-ylcarbonyl)-9H-carbazole-1-carboxamide] reads less than 50 nM; that for `Cc1nocc1-c1cc(C(N)=O)c2c(c1)c1ccc(C(=O)N3C[C@@H](C)O[C@@H](C)C3)cc1n2CC1CC1` [Example 56, 9-(cyclopropylmethyl)-7-((cis-2,6-dimethyl-4-morpholinyl)carbonyl)-3-(3-methyl-4-isoxazolyl)-9H-carbazole-1-carboxamide], less than 500 nM; that for `Cc1noc(C)c1-c1cc(C(N)=O)c2c(c1)c1cc(C(=O)N3CCOCC3)ccc1n2S(=O)(=O)C1CC1` [Example 87, 9-(cyclopropylsulfonyl)-3-(3,5-dimethyl-4-isoxazolyl)-6-(4-morpholinylcarbonyl)-9H-carbazole-1-carboxamide], less than 50 nM.
